Assay results as given in patent publication US20160368943A1, “SUBSTITUTED PURINE COMPOUNDS” (EPIZYME, INC., priority 2013, published 2016).
Read-outs that look alike come from different tables or passages of the source.

What was measured:
[1] = Pharmacokinetic study in dog; type: in vivo, Beagle dog; settings: 1 mg/kg
Description: IV doses were administered by a single intravenous infusion over 1 minute into the cephalic vein in a 10% ethanol and 90% saline vehicle. At designated time points (predose, 0.083, 0.25, 0.5, 1, 2, 4, 8 and 24 h p.d.), the animals were restrained manually, and approximately 0.5 mL blood per time point was collected from non-injected cephalic vein into pre-cold EDTA-K2 tubes. Blood samples were put on wet ice and centrifuged at 4° C. to obtain plasma within 15 minutes of sample collection. The levels of Compound A were quantitated in dog plasma by LC-MS/MS analysis. […] Typically, samples were injected onto an LC-MS/MS system using a Waters BEH Phenyl column. The aqueous mobile phase was water with 0.1% NH4OH (A), and the organic mobile phase was acetonitrile with 0.1% NH4OH (B). The gradient was as follows: 37% B for the first 0.2 min, increased to 44% B from 0.2 to 0.6 min, maintained at 44% B for 0.5 min, and decreased to 37% B within 0.05 min. The injection volume was 2 uL, and the total run time was 1.5 min with a flow rate of 0.6 mL/min. […] The ionization was conducted in the positive ion mode using the MRM transition [M+H]+m/z 563.5 parent ion to m/z 326.3 daughter ion, incorporating a turbo-ionspray interface. Eight to ten calibration standards were prepared in blank plasma of the relevant species providing a typical standard curve concentration range of 5-500 ng/mL. Pharmacokinetic parameters were calculated by noncompartmental methods using WinNonlin (version 5.3; Pharsight, St. Louis, Mo.). Parameters are presented as mean±S.D.

[2] = Liver microsome stability, human; type: in vitro ADME
Description: The final incubation volume was 50 μL. Control incubations were included for each species where 0.1 M phosphate buffer pH 7.4 was added instead of NADPH (minus NADPH). Two control compounds were included for each species. […] The control (minus NADPH) was incubated for 45 minutes only. The reactions were stopped by transferring 25 μL of incubate to 50 μL methanol at the appropriate time points. The incubation plates were centrifuged at 2,500 rpm for 20 minutes at 4° C. to aid protein precipitation. Experimental half-lives were transformed to the corresponding intrinsic clearance values and subsequently scaled to predicted in vivo clearance values, using the well-stirred model as previously described (Houston, Biochemical Pharmacology 47(9): 1469-1479, 1994; Obach, Drug Metabolism and Disposition 27(11): 1350-1359, 1999), with appropriate species-specific scaling factors (Barter et al., Current Drug Metabolism 8(1): 33-45, 2007).

[3] = Hepatocyte stability, dog; type: in vitro ADME, Beagle dog
Description: Human, Beagle dog, Sprague-Dawley rat, and CD-1 mouse cryopreserved hepatocytes were obtained from XenoTech and stored at −150° C. until use. The hepatocytes were thawed and prepared according to the vendor's instructions, pooled into Krebs Henseleit buffer (KHB, pH 7.4), and kept on ice prior to initiating an experiment. […] The reaction mixture was incubated in a shaking water bath at 37° C. Aliquots of the incubation solutions were sampled at 0, 15, 30, 60, and 120 minutes. The reaction was immediately terminated by the addition of three volumes of ice-cold acetonitrile containing 0.1% formic acid and internal standards. After centrifugation at 1640×g for 10 minutes, the supernatants were transferred into HPLC vials, and the test compound was analyzed by LC-MS/MS. Positive controls, testosterone (20 μM) and 7-hydroxycoumarin (100 μM), were performed in parallel to confirm the enzyme activities of the hepatocytes used.
Experimental half-lives were transformed to the corresponding intrinsic clearance values and subsequently scaled to predicted in vivo clearance values, using the well-stirred model as previously described (Houston, Biochemical Pharmacology 47(9): 1469-1479, 1994; Obach, Drug Metabolism and Disposition 27(11): 1350-1359, 1999), with appropriate species-specific scaling factors (Barter et al., Current Drug Metabolism 8(1): 33-45, 2007).

[4] = Plasma protein binding by equilibrium dialysis, rat; type: in vitro ADME; settings: male, Sprague-Dawley, pH 7.4, read-out: Plasma free fraction
Description: Plasma protein binding was assessed by equilibrium dialysis, utilizing the HT-dialysis cell format with a cellulose semi permeable membrane (molecular weight cut off of 5000 Da). Plasma was warmed to 37° C. and adjusted to pH 7.4 before use. Male Sprague-Dawley rat, male Beagle dog, male CD-1 mouse and mixed sex human plasma was used for the studies. A 5 μM test compound solution was prepared in isotonic phosphate buffer and rat, dog, mouse and human plasma (final DMSO concentration of 0.5%). The plasma-containing solution was introduced to one side of the membrane, and the plasma-free on the other. Incubations were performed for 2-16 hours in duplicate in order to allow the compound to reach equilibrium. Haloperidol was included as the control compound for each species. At the end of the equilibration time the cells were emptied. Following protein precipitation, the samples were centrifuged and analyzed by LC-MS/MS. The samples from the protein containing compartment were quantified using calibration standards prepared in plasma and the protein free compartments were quantified using calibration standards prepared in dialysis buffer.

[5] = test system: MDR1-MDCK (P-glycoprotein) cells; assay: MDCK cell permeability, MDR1-transfected cells; type: in vitro ADME, dog; settings: from relative efflux ratio, transfected vs native cells
Description: (§1) Samples were taken from the donor and receiver chambers at 120 minutes. Each determination was performed in duplicate. Co-dosed lucifer yellow flux was also measured for each monolayer to ensure cell monolayers remained intact during the incubation. All samples were assayed by LC-MS/MS.

P-glycoprotein (MDR1) = assay: MDCK cell permeability, MDR1-transfected cells; type: in vitro ADME, dog; settings: dog, 10 uM
Description: as §1

[6] = Metabolite profiling in liver microsomes with NADPH and UDPGA, human; type: in vitro ADME; settings: Compound A 10 μM, 20 min
Description: Compound A was incubated with liver microsomes of various species (mouse, rat, dog or human). […] For all liver microsomal incubations, samples were taken at 0 and 20 minutes. All samples were quenched by using acetonitrile/methanol solution and analyzed using an LC-MS/MS Q-Trap system (AB Sciex, Framingham, Mass.).
The corresponding product ion tandem mass spectra of Compound A and its metabolites were obtained by using enhanced product ion (EPI) scans during positive ion electrospray. The possible chemical structures of the metabolites were deduced based on their MS1 and MS2 spectra.

[7] = test system: MLL-rearranged leukemia xenograft; settings: cited from earlier work
[8] = male, plasma, Beagle dog, IV bolus

For `CC(C)N(C[C@H]1O[C@@H](n2cnc3c(N)ncnc32)[C@H](O)[C@@H]1O)[C@H]1C[C@@H](CCc2nc3cc(C(C)(C)C)ccc3[nH]2)C1` [Compound A, (2R,3R,4S,5R)-2-(6-amino-9H-purin-9-yl)-5-((((1r,3S)-3-(2-(5-(tert-butyl)-1H-benzo[d]imidazol-2-yl)ethyl)cyclobutyl)(isopropyl)amino)methyl)tetrahydrofuran-3,4-diol], which CL ([1]; Beagle dog, IV bolus) is on record?
The CL was 1.12 ± 0.102 L/h/kg.

And the clearance ([1]; male, beagle, dog, plasma, iv, Beagle dog, IV bolus)?
The clearance was 1.14 L/h/kg.

And the Vd ([1]; male, beagle, dog, plasma, iv, Beagle dog, IV bolus, read-out: VDss)?
Its Vd is 2.44 L/kg.

What about the Vd ([1]; male, beagle, dog, plasma, iv, dog, read-out: Unbound VDss) of the same compound?
Its Vd is 10.4 L/kg.

And the AUC(0-inf) [1, 8]?
Its AUC(0-inf) is 1600 ± 150 nM·h.

What about the AUC(0-t) [1, 8] of the same compound?
The AUC(0-t) was 1550 ± 160 nM·h.

What about the Cmax [1, 8] of the same compound?
Its Cmax is 5.06 ± 0.6 µM.

And the MRT [1, 8]?
Its MRT is 2.17 ± 0.89 h.

And the Tmax [1, 8]?
Its Tmax is 4.98 min.

What about the half-life [1, 8] of the same compound?
Its half-life is 13.6 h.

What about the microsomal CLint at 3 μM ([2]; liver microsomes, pH 7.4, NADPH, 3 μM) of the same compound?
Its microsomal CLint at 3 μM is 88 µL/min/mg.

And the “Scaled Hepatic CL from liver microsomes” value ([2]; well-stirred model)?
Its value is 1.02 L/h/kg.

What about the “Scaled Hepatic CL from hepatocytes” value [3] of the same compound?
Its value is 1.26 L/h/kg.

And the hepatocyte CLint at 3 μM ([3]; beagle, cryopreserved hepatocytes in suspension, pH 7.4, 3 μM)?
The hepatocyte CLint at 3 μM was 14.9 µL/min/1e6 cells.

What about the fraction unbound at 5 μM [4] of the same compound?
The fraction unbound at 5 μM was 0.272.

And the “P-gp substrate (in words)” value [5]?
The value was “not a substrate for P-gp”.

What about the Papp A→B at 120 min, 10 uM (P-glycoprotein (MDR1); MDCK-MDR1, MDCK - MDR1 transfected, Apical-to-basolateral) of the same compound?
The Papp A→B at 120 min, 10 uM was < 1 nm/s.

What about the Papp B→A at 120 min, 10 uM (P-glycoprotein (MDR1); MDCK - MDR1 transfected, Basolateral-to-apical) of the same compound?
Its Papp B→A at 120 min, 10 uM is 2.2 nm/s.

And the “Abundance based on UV spectra” value [6]?
The value was 59%.

What about the tumor response ([7]; continuous intravenous (IV) infusion, rat xenograft) of the same compound?
Its tumor response is “complete tumor regressions”.

What about the “weight loss or signs of toxicity” value ([7]; rat, in vivo, iv) of the same compound?
Its value is “no significant weight loss or signs of toxicity”.
